Target: c-Met kinase (h-Met; histidine-tagged c-Met catalytic domain fusion protein) (Homo sapiens (Human), UniProt P08581)
Test: In Vitro c-Met Kinase Enzyme Assays
Assay type: biochemical
Conditions: phosphorylation of poly Glu-Tyr, 5 μM ATP, 25 minutes at 30° C.
Summary of the method: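 His-tagged c-Met catalytic domain reacted 25 min at 30° C, within the linear initial-rate range. Phosphotyrosine detected by ELISA with peroxidase-labeled anti-phospho-tyrosine antibody and TMB, OD read at 450 nm (540 nm correction); IC50 from curve fit.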

c-Met kinase (h-Met; histidine-tagged c-Met catalytic domain fusion protein), sequence (P08581 1078-1345): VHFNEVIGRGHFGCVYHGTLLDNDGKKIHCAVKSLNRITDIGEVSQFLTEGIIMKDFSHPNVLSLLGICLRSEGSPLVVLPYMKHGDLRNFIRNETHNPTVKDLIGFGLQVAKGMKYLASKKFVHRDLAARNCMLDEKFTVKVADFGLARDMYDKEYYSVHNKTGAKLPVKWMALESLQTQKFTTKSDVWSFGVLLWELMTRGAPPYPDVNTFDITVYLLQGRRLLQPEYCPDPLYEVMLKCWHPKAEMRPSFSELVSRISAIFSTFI

| SMILES | IC50 [µM] |
| --- | --- |
| CC(C)C[C@@H](NC(=O)c1ccc(-c2cnc3ncc(Cc4ccc5ncccc5c4)n3n2)cc1F)C(=O)N(C)C [Example 136, N-{(1R)-1-[(Dimethylamino)carbonyl]-3-methylbutyl}-2-fluoro-4-[7-(quinolin-6-ylmethyl)imidazo[1,2-b][1,2,4]triazin-2-yl]benzamide] | < 0.5 |
| CC(C)C[C@@H](NC(=O)c1ccc(-c2cnc3ncc(Cc4ccc5ncccc5c4)n3n2)cc1F)C(=O)N1CCC1 [Example 137, N-[(1R)-1-(Azetidin-1-ylcarbonyl)-3-methylbutyl]-2-fluoro-4-[7-(quinolin-6-ylmethyl)imidazo[1,2-b][1,2,4]triazin-2-yl]benzamide] | < 0.5 |
| N#CCCn1cc(-c2cnc3ncc(Cc4ccc5ncccc5c4)n3n2)cn1 [Example 138, 3-{4-[7-(Quinolin-6-ylmethyl)imidazo[1,2-b][1,2,4]triazin-2-yl]-1H-pyrazol-1-yl}propanenitrile] | < 0.5 |
| N#CCn1cc(-c2cnc3ncc(Cc4ccc5ncccc5c4)n3n2)cn1 [Example 139, 4-[7-(Quinolin-6-ylmethyl)imidazo[1,2-b][1,2,4]triazin-2-yl]-1H-pyrazol-1-ylacetonitrile] | < 0.5 |
| NC(=O)Cn1cc(-c2cnc3ncc(Cc4ccc5ncccc5c4)n3n2)cn1 [Example 140, 2-{4-[7-(Quinolin-6-ylmethyl)imidazo[1,2-b][1,2,4]triazin-2-yl]-1H-pyrazol-1-yl}acetamide] | < 0.5 |
| COC(=O)N1CCC(n2cc(-c3cnc4ncc(Cc5ccc6ncccc6c5)n4n3)cn2)CC1 [Example 141, Methyl 4-{4-[7-(quinolin-6-ylmethyl)imidazo[1,2-b][1,2,4]triazin-2-yl]-1H-pyrazol-1-yl}piperidine-1-carboxylate] | < 0.5 |
| O=C(N[C@H]1CCC[C@@H]1O)c1ccc(-c2cnc3ncc(Cc4ccc5ncccc5c4)n3n2)cc1F [Example 142, 2-Fluoro-N-[(1S,2S)-2-hydroxycyclopentyl]-4-[7-(quinolin-6-ylmethyl)imidazo[1,2-b][1,2,4]triazin-2-yl]benzamide] | < 0.5 |
| O=C(NCCO)c1ccc(-c2cnc3ncc(Cc4ccc5ncccc5c4)n3n2)cc1F [Example 143, 2-Fluoro-N-(2-hydroxyethyl)-4-[7-(quinolin-6-ylmethyl)imidazo[1,2-b][1,2,4]triazin-2-yl]benzamide] | < 0.5 |
| COCC1(NC(=O)c2ccc(-c3cnc4ncc(Cc5ccc6ncccc6c5)n4n3)cc2F)CCC1 [Example 144, 2-Fluoro-N-[1-(methoxymethyl)cyclobutyl]-4-[7-(quinolin-6-ylmethyl)imidazo[1,2-b][1,2,4]triazin-2-yl]benzamide] | < 0.5 |
| COCC1(NC(=O)c2ccc(-c3cnc4ncc(Cc5ccc6ncccc6c5)n4n3)cc2F)CCOCC1 [Example 145, 2-Fluoro-N-[4-(methoxymethyl)tetrahydro-2H-pyran-4-yl]-4-[7-(quinolin-6-ylmethyl)imidazo[1,2-b][1,2,4]triazin-2-yl]benzamide] | < 0.5 |
| O=C(NCC1CC1)c1ccc(-c2cnc3ncc(Cc4ccc5ncccc5c4)n3n2)cc1F [Example 146, N-(Cyclopropylmethyl)-2-fluoro-4-[7-(quinolin-6-ylmethyl)imidazo[1,2-b][1,2,4]triazin-2-yl]benzamide] | < 0.5 |
| O=C(NCC1CCOCC1)c1ccc(-c2cnc3ncc(Cc4ccc5ncccc5c4)n3n2)cc1F [Example 147, 2-Fluoro-4-[7-(quinolin-6-ylmethyl)imidazo[1,2-b][1,2,4]triazin-2-yl]-N-(tetrahydro-2H-pyran-4-ylmethyl)benzamide] | < 0.5 |
| CN(C)CCNC(=O)c1ccc(-c2cnc3ncc(Cc4ccc5ncccc5c4)n3n2)cc1F [Example 148, N-[2-(Dimethylamino)ethyl]-2-fluoro-4-[7-(quinolin-6-ylmethyl)imidazo[1,2-b][1,2,4]triazin-2-yl]benzamide] | < 0.5 |
| O=C(NCCN1CCCCC1)c1ccc(-c2cnc3ncc(Cc4ccc5ncccc5c4)n3n2)cc1F [Example 149, 2-Fluoro-N-(2-piperidin-1-ylethyl)-4-[7-(quinolin-6-ylmethyl)imidazo[1,2-b][1,2,4]triazin-2-yl]benzamide] | < 0.5 |
| CN1CCCC1CCNC(=O)c1ccc(-c2cnc3ncc(Cc4ccc5ncccc5c4)n3n2)cc1F (stereo not drawn) [Example 150, 2-Fluoro-N-[2-(1-methylpyrrolidin-2-yl)ethyl]-4-[7-(quinolin-6-ylmethyl)imidazo[1,2-b][1,2,4]triazin-2-yl]benzamide] | < 0.5 |
| O=C(NCc1ccccn1)c1ccc(-c2cnc3ncc(Cc4ccc5ncccc5c4)n3n2)cc1F [Example 151, 2-Fluoro-N-(pyridin-2-ylmethyl)-4-[7-(quinolin-6-ylmethyl)imidazo[1,2-b][1,2,4]triazin-2-yl]benzamide] | < 0.5 |
| O=C(NCc1cccnc1)c1ccc(-c2cnc3ncc(Cc4ccc5ncccc5c4)n3n2)cc1F [Example 152, 2-Fluoro-N-(pyridin-3-ylmethyl)-4-[7-(quinolin-6-ylmethyl)imidazo[1,2-b][1,2,4]triazin-2-yl]benzamide] | < 0.5 |
| O=C(NCc1ccncc1)c1ccc(-c2cnc3ncc(Cc4ccc5ncccc5c4)n3n2)cc1F [Example 153, 2-Fluoro-N-(pyridin-4-ylmethyl)-4-[7-(quinolin-6-ylmethyl)imidazo[1,2-b][1,2,4]triazin-2-yl]benzamide] | < 0.5 |
| O=C(NCCc1ccccn1)c1ccc(-c2cnc3ncc(Cc4ccc5ncccc5c4)n3n2)cc1F [Example 154, 2-Fluoro-N-(2-pyridin-2-ylethyl)-4-[7-(quinolin-6-ylmethyl)imidazo[1,2-b][1,2,4]triazin-2-yl]benzamide] | < 0.5 |
| CC(NC(=O)c1ccc(-c2cnc3ncc(Cc4ccc5ncccc5c4)n3n2)cc1F)c1cccnc1 (stereo not drawn) [Example 155, 2-Fluoro-N-(1-pyridin-3-ylethyl)-4-[7-(quinolin-6-ylmethyl)imidazo[1,2-b][1,2,4]triazin-2-yl]benzamide] | < 0.5 |

The next lines start with the values.

| IC50 [µM] | SMILES |
| --- | --- |
| < 0.5 | CC(NC(=O)c1ccc(-c2cnc3ncc(Cc4ccc5ncccc5c4)n3n2)cc1F)c1ccncc1 (stereo not drawn) [Example 156, 2-Fluoro-N-(1-pyridin-4-ylethyl)-4-[7-(quinolin-6-ylmethyl)imidazo[1,2-b][1,2,4]triazin-2-yl]benzamide] |
| < 0.5 | CC(C)(C)[C@@H](CO)NC(=O)c1ccc(-c2cnc3ncc(Cc4ccc5ncccc5c4)n3n2)cc1F [Example 157, 2-Fluoro-N-[(1S)-1-(hydroxymethyl)-2,2-dimethylpropyl]-4-[7-(quinolin-6-ylmethyl)imidazo[1,2-b][1,2,4]triazin-2-yl]benzamide] |
| < 0.5 | O=C(NC1(CO)CCCC1)c1ccc(-c2cnc3ncc(Cc4ccc5ncccc5c4)n3n2)cc1F [Example 158, 2-Fluoro-N-[1-(hydroxymethyl)cyclopentyl]-4-[7-(quinolin-6-ylmethyl)imidazo[1,2-b][1,2,4]triazin-2-yl]benzamide] |
| < 0.5 | CC(c1ccc2ncccc2c1)c1cnc2ncc(-c3ccc(C(=O)N[C@H]4CC[C@H](O)CC4)c(F)c3)nn12 (stereo partly drawn) [Example 159, 2-Fluoro-N-(trans-4-hydroxycyclohexyl)-4-[7-(1-quinolin-6-ylethyl)imidazo[1,2-b][1,2,4]triazin-2-yl]benzamide] |
| < 0.5 | CNC(=O)c1ccc(-c2cnc3ncc(C(C)c4ccc5ncccc5c4)n3n2)cc1F (stereo not drawn) [Example 160, 2-Fluoro-N-methyl-4-[7-(1-quinolin-6-ylethyl)imidazo[1,2-b][1,2,4]triazin-2-yl]benzamide] |
| < 0.5 | CC(c1ccc2ncccc2c1)c1cnc2ncc(-c3ccc(C(=O)NC4CC4)c(F)c3)nn12 (stereo not drawn) [Example 161, N-Cyclopropyl-2-fluoro-4-[7-(1-quinolin-6-ylethyl)imidazo[1,2-b][1,2,4]triazin-2-yl]benzamide] |
| < 0.5 | COCC1(NC(=O)c2ccc(-c3cnc4ncc(C(C)c5ccc6ncccc6c5)n4n3)cc2F)CC1 (stereo not drawn) [Example 162, 2-Fluoro-N-[1-(methoxymethyl)cyclopropyl]-4-[7-(1-quinolin-6-ylethyl)imidazo[1,2-b][1,2,4]triazin-2-yl]benzamide] |
| < 0.5 | COCC(C)NC(=O)c1ccc(-c2cnc3ncc(C4(c5ccc6ncccc6c5)CC4)n3c2)cc1F (stereo not drawn) [Example 163, 2-Fluoro-N-(2-methoxy-1-methylethyl)-4-[3-(1-quinolin-6-ylcyclopropyl)imidazo[1,2-a]pyrimidin-6-yl]benzamide] |
| < 0.5 | O=C(c1ccc(-c2cnc3ncc(C4(c5ccc6ncccc6c5)CC4)n3c2)cc1F)N1CC[C@H](F)C1 [Example 164, 6-{1-[6-(3-Fluoro-4-[(3S)-3-fluoropyrrolidin-1-yl]carbonylphenyl)imidazo[1,2-a]pyrimidin-3-yl]cyclopropyl}quinoline] |
| < 0.5 | O=C(NCc1ccccn1)c1ccc(-c2cnc3ncc(C4(c5ccc6ncccc6c5)CC4)n3c2)cc1F [Example 165, 2-Fluoro-N-(pyridin-2-ylmethyl)-4-[3-(1-quinolin-6-ylcyclopropyl)imidazo[1,2-a]pyrimidin-6-yl]benzamide] |
| < 0.5 | O=C(NC1(c2ccccn2)CC1)c1ccc(-c2cnc3ncc(C4(c5ccc6ncccc6c5)CC4)n3c2)cc1F [Example 166, 2-Fluoro-N-(1-pyridin-2-ylcyclopropyl)-4-[3-(1-quinolin-6-ylcyclopropyl)imidazo[1,2-a]pyrimidin-6-yl]benzamide] |
| < 0.5 | O=C(NC1CCN(c2ccccn2)C1)c1ccc(-c2cnc3ncc(C4(c5ccc6ncccc6c5)CC4)n3c2)cc1F (stereo not drawn) [Example 167, 2-Fluoro-N-(1-pyridin-2-ylpyrrolidin-3-yl)-4-[3-(1-quinolin-6-ylcyclopropyl)imidazo[1,2-a]pyrimidin-6-yl]benzamide] |
| < 0.5 | O=C(N[C@@H]1CCOC1)c1ccc(-c2cnc3ncc(C4(c5ccc6ncccc6c5)CC4)n3c2)cc1F [Example 168, 2-Fluoro-4-[3-(1-quinolin-6-ylcyclopropyl)imidazo[1,2-a]pyrimidin-6-yl]-N-[(3R)-tetrahydrofuran-3-yl]benzamide] |

Reference: patent US9944645B2, “Imidazotriazines and imidazopyrimidines as kinase inhibitors” (Incyte Holdings Corporation, priority 2006, dated 2018)
